For test [1], the target named is T1, Adrenergic receptor alpha-1 (Rattus norvegicus, UniProt P15823+P23944+P43140).
T1 sequence (P15823 whole entry): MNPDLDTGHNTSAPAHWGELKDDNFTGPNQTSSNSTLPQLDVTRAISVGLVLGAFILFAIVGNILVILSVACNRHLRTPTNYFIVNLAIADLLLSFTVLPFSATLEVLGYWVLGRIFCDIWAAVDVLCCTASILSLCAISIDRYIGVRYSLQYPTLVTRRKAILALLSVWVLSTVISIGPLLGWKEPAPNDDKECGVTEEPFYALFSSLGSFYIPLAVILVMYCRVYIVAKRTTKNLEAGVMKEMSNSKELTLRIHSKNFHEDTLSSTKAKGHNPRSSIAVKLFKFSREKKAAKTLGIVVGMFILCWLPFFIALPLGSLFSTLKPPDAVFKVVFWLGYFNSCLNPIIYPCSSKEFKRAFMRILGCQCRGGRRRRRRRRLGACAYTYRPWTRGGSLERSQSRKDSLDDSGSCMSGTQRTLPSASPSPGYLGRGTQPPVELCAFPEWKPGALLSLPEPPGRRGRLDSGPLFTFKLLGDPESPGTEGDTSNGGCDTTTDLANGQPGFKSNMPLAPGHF
T1 sequence (P23944 whole entry): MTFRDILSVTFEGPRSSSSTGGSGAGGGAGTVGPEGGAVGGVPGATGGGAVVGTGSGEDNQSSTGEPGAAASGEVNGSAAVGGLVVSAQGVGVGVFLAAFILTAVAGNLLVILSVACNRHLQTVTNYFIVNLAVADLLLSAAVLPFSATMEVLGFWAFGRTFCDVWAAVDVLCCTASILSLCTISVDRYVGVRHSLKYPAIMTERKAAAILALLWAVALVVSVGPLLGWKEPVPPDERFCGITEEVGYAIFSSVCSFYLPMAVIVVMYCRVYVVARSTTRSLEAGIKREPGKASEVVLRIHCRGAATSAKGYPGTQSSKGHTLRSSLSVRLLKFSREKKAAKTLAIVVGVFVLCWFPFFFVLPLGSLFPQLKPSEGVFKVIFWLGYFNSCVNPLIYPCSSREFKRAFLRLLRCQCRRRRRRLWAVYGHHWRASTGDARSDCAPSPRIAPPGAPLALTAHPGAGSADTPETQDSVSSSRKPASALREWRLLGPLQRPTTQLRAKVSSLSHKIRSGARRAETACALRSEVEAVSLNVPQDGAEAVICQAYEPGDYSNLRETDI
T1 sequence (P43140 whole entry): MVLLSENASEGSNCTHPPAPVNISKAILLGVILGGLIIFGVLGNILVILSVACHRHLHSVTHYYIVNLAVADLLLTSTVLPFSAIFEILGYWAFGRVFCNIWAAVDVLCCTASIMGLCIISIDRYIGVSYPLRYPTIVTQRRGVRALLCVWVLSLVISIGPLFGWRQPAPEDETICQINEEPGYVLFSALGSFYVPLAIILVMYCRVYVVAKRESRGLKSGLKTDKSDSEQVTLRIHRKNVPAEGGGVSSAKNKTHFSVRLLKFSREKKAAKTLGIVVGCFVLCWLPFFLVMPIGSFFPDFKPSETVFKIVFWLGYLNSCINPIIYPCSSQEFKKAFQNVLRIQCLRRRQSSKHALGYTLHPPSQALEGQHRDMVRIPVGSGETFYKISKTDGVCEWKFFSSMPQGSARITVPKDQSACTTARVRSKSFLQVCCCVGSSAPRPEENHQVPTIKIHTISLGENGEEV
The test can be described thus: Binding affinity towards alpha-1 adrenergic receptor using [3H]prazosin radioligand. It counts as protein assay.

The target of the next test is D(2) dopamine receptor (Rattus norvegicus, UniProt P61169). Nature of the test: Binding affinity towards dopamine receptor D2 using [3H]-raclopride radioligand.
D(2) dopamine receptor, sequence (P61169 whole entry): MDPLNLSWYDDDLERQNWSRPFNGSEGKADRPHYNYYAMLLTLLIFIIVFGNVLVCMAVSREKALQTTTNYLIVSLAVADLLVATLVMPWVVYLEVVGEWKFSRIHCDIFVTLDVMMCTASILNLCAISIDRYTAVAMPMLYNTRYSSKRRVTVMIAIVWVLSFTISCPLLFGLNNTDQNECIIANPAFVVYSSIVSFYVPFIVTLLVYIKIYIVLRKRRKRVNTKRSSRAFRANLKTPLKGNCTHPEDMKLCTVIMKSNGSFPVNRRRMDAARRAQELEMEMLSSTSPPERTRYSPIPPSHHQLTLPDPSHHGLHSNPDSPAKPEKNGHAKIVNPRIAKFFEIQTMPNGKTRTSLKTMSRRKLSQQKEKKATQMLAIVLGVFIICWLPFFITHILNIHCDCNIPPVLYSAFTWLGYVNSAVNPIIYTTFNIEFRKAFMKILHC
In test [2] the target is T2, 5-hydroxytryptamine receptor 1A (Rattus norvegicus, UniProt P19327).
T2 sequence (P19327 whole entry): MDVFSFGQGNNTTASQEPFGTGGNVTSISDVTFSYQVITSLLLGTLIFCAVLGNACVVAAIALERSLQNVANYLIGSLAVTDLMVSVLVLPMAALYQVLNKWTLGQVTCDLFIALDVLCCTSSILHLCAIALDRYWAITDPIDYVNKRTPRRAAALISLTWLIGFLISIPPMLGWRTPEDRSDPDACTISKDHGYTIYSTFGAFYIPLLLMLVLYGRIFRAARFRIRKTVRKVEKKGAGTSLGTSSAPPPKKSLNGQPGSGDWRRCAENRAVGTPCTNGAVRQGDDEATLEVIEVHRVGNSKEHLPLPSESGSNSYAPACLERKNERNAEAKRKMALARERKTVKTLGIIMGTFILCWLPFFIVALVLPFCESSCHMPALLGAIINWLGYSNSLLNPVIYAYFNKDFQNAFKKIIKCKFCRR
The test can be described thus: Binding affinity towards rat 5-hydroxytryptamine 1A receptor using [3H]8-OH-DPAT radioligand.

Structures are written as SMILES.

A word on the Ki: it is the dissociation constant of the complex between target and ligand, obtained from inhibition or displacement. Read a low Ki as higher affinity. In the case of `O=C1C2CCCN2C(=O)N1CCCN1CCN(c2ccc([N+](=O)[O-])cc2)CC1` (centres undefined), the Ki in test [1] was above 1000 nM; on D(2) dopamine receptor, above 10000 nM; in test [2], above 10000 nM.
Consider `O=C1C2CCCCN2C(=O)N1CCCN1CCN(c2cccc(Cl)c2)CC1` (centres undefined), for which the Ki in test [1] is 17.9 nM; at D(2) dopamine receptor, above 1000 nM; in test [2] it was 53.6 nM.
The corresponding values for `COc1ccccc1N1CCN(CCCN2C(=O)C3CCCCN3C2=O)CC1` (centres undefined) are 9.9 nM, above 1000 nM and 4.1 nM.
As to `O=C1C2CCCN2C(=O)N1CCCCN1CCN(c2cccc(C(F)(F)F)c2)CC1` (centres undefined), the values for the inhibition constant Ki (in test [1]; at D(2) dopamine receptor; in test [2]) were 64.9 nM, above 1000 nM and 2.4 nM, respectively.
In the case of `O=C1C2CCCN2C(=O)N1CN1CCN(c2ccc(F)cc2)CC1` (centres undefined), the results for the Ki (in test [1]; on D(2) dopamine receptor; in test [2]) were above 1000 nM, above 10000 nM and 500 nM, respectively.
The corresponding values for `O=C1C2CCCCN2C(=O)N1CCCCN1CCN(c2ccc(F)cc2)CC1` (centres undefined) are 10.4 nM, 615 nM and 57.9 nM.
In the case of `O=C1C2CCCN2C(=O)N1CCCN1CCN(c2cccc(Cl)c2)CC1` (centres undefined), the Ki was 21.6 nM in test [1], above 1000 nM on D(2) dopamine receptor and 55.9 nM in test [2].
The corresponding values for `O=C1C2CCCCN2C(=O)N1CCCCN1CCN(c2ccc([N+](=O)[O-])cc2)CC1` (centres undefined) are above 1000 nM, above 1000 nM and above 1000 nM.
Regarding `O=C1C2CCCCN2C(=O)N1CN1CCN(c2ccccc2)CC1` (centres undefined), the inhibition constant Ki in test [1] was above 1000 nM; at D(2) dopamine receptor, above 10000 nM; in test [2] it was 101 nM.
For `COc1ccccc1N1CCN(CN2C(=O)C3CCCN3C2=O)CC1` (centres undefined), in that order: 500 nM, above 1000 nM and 34.9 nM.
For `O=C1C2CCCN2C(=O)N1CN1CCN(c2cccc(Cl)c2)CC1` (centres undefined), in that order: 292 nM, above 10000 nM and 58.4 nM.
With `O=C1C2CCCN2C(=O)N1CN1CCN(c2ccc([N+](=O)[O-])cc2)CC1` (centres undefined), the Ki in test [1] is above 10000 nM; at D(2) dopamine receptor it was above 10000 nM; in test [2] it was above 1000 nM.
As for `COc1ccccc1N1CCN(CCCCN2C(=O)C3CCCN3C2=O)CC1` (centres undefined), the Ki was 8.3 nM in test [1], 107 nM at D(2) dopamine receptor and 5.5 nM in test [2].
Consider `O=C1C2CCCN2C(=O)N1CCN1CCN(c2ccc(F)cc2)CC1` (centres undefined), for which the Ki was above 1000 nM in test [1], above 10000 nM at D(2) dopamine receptor and above 10000 nM in test [2].
As for `O=C1C2CCCCN2C(=O)N1CCCN1CCN(c2ccccc2)CC1` (centres undefined), the Ki was 11.4 nM in test [1], above 1000 nM on D(2) dopamine receptor and 154 nM in test [2].
For `O=C1C2CCCN2C(=O)N1CCCN1CCN(c2ccccc2)CC1` (centres undefined), in that order: 15.4 nM, above 1000 nM and 19.2 nM.
For `O=C1C2CCCN2C(=O)N1CCN1CCN(c2cccc(Cl)c2)CC1` (centres undefined), in that order: 500 nM, above 1000 nM and 418 nM.
For `COc1ccccc1N1CCN(CCN2C(=O)C3CCCN3C2=O)CC1` (centres undefined), in that order: 190 nM, 361 nM and 234 nM.
For `COc1ccccc1N1CCN(CCCCN2C(=O)c3ccccc3C2=O)CC1` [NAN-190], the Ki on D(2) dopamine receptor stood at 64 nM.
Take `O=C1C2CCCN2C(=O)N1CCCCN1CCN(c2cccc(Cl)c2)CC1` (centres undefined): the figures for the Ki (in test [1]; at D(2) dopamine receptor; in test [2]) were 9.6 nM, 151 nM and 11.3 nM, respectively.
For `O=C1C2CCCCN2C(=O)N1CCCN1CCN(c2ccc(F)cc2)CC1` (centres undefined), in that order: 25.8 nM, above 1000 nM and 598 nM.
The corresponding values for `O=C1C2CCCCN2C(=O)N1CCN1CCN(c2cccc(Cl)c2)CC1` (centres undefined) are 375 nM, above 1000 nM and 128 nM.
Consider `O=C1C2CCCCN2C(=O)N1CCN1CCN(c2ccc([N+](=O)[O-])cc2)CC1` (centres undefined), for which the Ki (in test [1]; on D(2) dopamine receptor; in test [2]) was above 10000 nM throughout.
In the case of `O=C1C2CCCN2C(=O)N1CCN1CCN(c2ccc([N+](=O)[O-])cc2)CC1` (centres undefined), the Ki (in test [1]; at D(2) dopamine receptor; in test [2]) was above 10000 nM each time.
As to `O=C1C2CCCN2C(=O)N1CN1CCN(c2cccc(C(F)(F)F)c2)CC1` (centres undefined), the Ki is above 1000 nM in test [1], above 1000 nM at D(2) dopamine receptor and 120 nM in test [2].
For the compound `O=C1C2CCCCN2C(=O)N1CN1CCN(c2ccc(F)cc2)CC1` (centres undefined), the Ki is 869 nM in test [1], above 10000 nM at D(2) dopamine receptor and 444 nM in test [2].
Consider `O=C1C2CCCCN2C(=O)N1CN1CCN(c2cccc(C(F)(F)F)c2)CC1` (centres undefined), for which the figures for the Ki (in test [1]; at D(2) dopamine receptor; in test [2]) were above 1000 nM, above 1000 nM and 78.6 nM, respectively.
In the case of `O=C1C2CCCN2C(=O)N1CCN1CCN(c2cccc(C(F)(F)F)c2)CC1` (centres undefined), the values for the Ki (in test [1]; at D(2) dopamine receptor; in test [2]) were above 1000 nM, above 1000 nM and 123 nM, respectively.
As to `O=C1C2CCCN2C(=O)N1CN1CCN(c2ccccc2)CC1` (centres undefined), the Ki was 1000 nM in test [1], above 10000 nM at D(2) dopamine receptor and 85.3 nM in test [2].
The corresponding values for `COc1ccccc1N1CCN(CCN2C(=O)C3CCCCN3C2=O)CC1` (centres undefined) are 131 nM, 246 nM and 45.5 nM.
The corresponding values for `O=C1C2CCCN2C(=O)N1CCCCN1CCN(c2ccc(F)cc2)CC1` (centres undefined) are 47.2 nM, above 1000 nM and 89.9 nM.
The corresponding values for `COc1ccccc1N1CCN(CCCN2C(=O)C3CCCN3C2=O)CC1` (centres undefined) are 3.1 nM, above 1000 nM and 4.4 nM.
In the case of `O=C1C2CCCN2C(=O)N1CCCN1CCN(c2cccc(C(F)(F)F)c2)CC1` (centres undefined), the figures for the Ki (in test [1]; at D(2) dopamine receptor; in test [2]) were 109 nM, above 1000 nM and 3.8 nM, respectively.
The corresponding values for `O=C1C2CCCCN2C(=O)N1CCCCN1CCN(c2cccc(Cl)c2)CC1` (centres undefined) are 12.1 nM, 129 nM and 7.2 nM.
For `O=C1C2CCCN2C(=O)N1CCN1CCN(c2ccccc2)CC1` (centres undefined), in that order: above 1000 nM, above 1000 nM and above 1000 nM.
On to `O=C1C2CCCCN2C(=O)N1CCN1CCN(c2ccc(F)cc2)CC1` (centres undefined), for which the Ki in test [1] was above 1000 nM; at D(2) dopamine receptor it was above 10000 nM; in test [2] it was above 10000 nM.
For the compound `O=C1C2CCCCN2C(=O)N1CN1CCN(c2cccc(Cl)c2)CC1` (centres undefined), the Ki was 135 nM in test [1], above 10000 nM on D(2) dopamine receptor and 57.7 nM in test [2].
The corresponding values for `O=C1C2CCCCN2C(=O)N1CCCN1CCN(c2cccc(C(F)(F)F)c2)CC1` (centres undefined) are 90.4 nM, above 1000 nM and 5.7 nM.
On to `O=C1C2CCCCN2C(=O)N1CCCCN1CCN(c2ccccc2)CC1` (centres undefined), for which the Ki in test [1] is 18.6 nM; on D(2) dopamine receptor, above 1000 nM.

Values taken from ChEMBL document CHEMBL1129734, “Synthesis and structure-activity relationships of a new model of arylpiperazines. 1. 2-[[4-(o-methoxyphenyl)piperazin-1-yl]methyl]-1, 3-dioxoperhydroimidazo[1,5-alpha]pyridine: a selective 5-HT1A receptor agonist” (J Med Chem, 1996).
